Several values for one entry are separate records, joined by “and”; a condition that tells them apart may be missing. Identical values can stand only once.
Key:
streptavidin (SAV) [1] = target: T1, streptavidin (SAV) (Streptomyces avidinii, UniProt P22629); assay: Steady-state anisotropy (rss), SAV complex; assay type: physicochemical; settings: for Steady State Anisotropy rss: SAV complex (AB1), 20°C; for SAV-increment (%): increase of rss against unbound; for rss, + SAV: steady-state anisotropy
T1 construct: purchased Sigma Aldrich (St. Louis, MO)
Protocol: (§1) The lifetimes (τ), steady state anisotropies (rss), time-resolved anisotropies (rt) and quantum yields (QY) of the complexes (at 20 ± 0.1°C and pH 8) were collected with a dye-labeled B7 probe concentration of 20–40 nM and 1040–2080 nM of either protein (AV or SAV) to ensure that only one binding site in the tetramer was filled with a ligand (AB1 filling model).
(§2) The rss measurements were collected using the Giblin-Parkhurst modification of the Wampler-Desa method as described previously. The fluorescence signal was detected in a model A-1010 Alphascan fluorimeter (Photon Technologies, Inc., Birmingham, NJ) equipped with an R928 PMT (Hamamatsu, Bridgewater, NJ). The excitation was provided by an Ar^+ ion laser (Coherent Innova 70–4 Argon, Santa Clara, CA) at 488 nm and 5–10 mW of power incident on the sample. A photoelastic modulator (PEM-80; HINDS International, Inc., Portland, OR) was placed between the laser source and the sample compartment with a retardation level of 1.22π, and the PEM stress axis orientated 45° with respect to the E vector of the laser beam. Two signals were acquired with the PEM alternating between “on” and “off” positions for 10 seconds and the data fitted to a least squared straight line to minimize noise. A minimum of six of these independent measurements were averaged to acquire the rss values. The fluorimeter G factor was determined using a film polarizer and analyzer with an excitation at 488 nm provided by a xenon arc lamp (model A1010, Photon Technologies Inc, Princeton, NJ). The dissociation reactions of dye-labeled B7 and protein complexes were monitored by fluorescence changes and were also collected in the fluorimeter described above.

streptavidin (SAV) [2] = target: T1, streptavidin (SAV); assay: Dissociation (displacement/replacement) of dye-labeled biotin complexes by unlabeled B7; assay type: binding; settings: for half-time of displacement: SAV-BcO AB1
Protocol: Biotin dissociation was determined using labelled biotin (BcO and BFl) displaced by unlabeled biotin using minimally occupied and fully occupied binding sites. In the minimally occupied measurements, SAV is prepared with less than one site on average occupied by labelled biotin (AB1), using 800 nM SAV and 40 nM of BcO or BFl. For saturated SAV-labelled biotin (AB4) complexes, equimolar binding sites and labelled ligand were prepared, 40 nM SAV and 40 nM of BcO or BFl. The AB1 complexes were challenged in displacement experiments with several concentrations of unlabeled B7 (1500 nM, 1750 nM, 2000 nM and 2500 nM) at 20 ± 0.1°C. In AB1, SAV had 760 nM in open sites, therefore the total challenging B7 concentrations were 740 nM, 990 nM, 1240 nM and 1740 nM, respectively. […] The 40 nM AB4 complexes were challenged with unlabeled B7 concentrations of 400 nM (10X) and 1600 nM (40X) at 20 ± 0.1°C. The dissociation reactions of AV complexes were carried out with a preformed complex of 20 nM BFl or BcO and 260 nM AV for a filling model of AB1 and challenged with unlabeled B7 at 2,000 nM.
as §2
The dissociation reactions were followed by fluorescence changes, F¯(t) , in the fluorimeter and laser setup described above and tuned to 488 nm under discontinuous excitation to prevent photobleaching distortion. The signal was best fitted to the following dissociation model (Eq 10), in which the dye labeled complex dissociates into the labeled B7 probe (BFl or BcO) and the respective protein (AV or SAV).

streptavidin (SAV) [3] = target: T1, streptavidin (SAV); assay: Intrinsic lifetime, dynamic quantum yield and fraction of non-statically quenched molecules, SAV complex; assay type: physicochemical; settings: for 1-S (4) = QY/F, fraction of non-statically quenched molecules / F (3) = Sat/t° / S / t° (2), intrinsic lifetime of the fluorescence dye: complex with SAV
streptavidin (SAV) [4] = target: T1, streptavidin (SAV); assay: Quantum yields (QY), SAV complex; assay type: physicochemical; settings: for dQY-SAV: fractional change of QY, SAV complex against dye
Protocol: as §1
(§3) The QY values were obtained by using a reference fluorophore of known quantum yield and were calculated according to Parker and Rees, where the reference dye was fluorescein in 0.1N sodium hydroxide solution [46]. The emission fluorescence scans were collected from 480 nm to 700 nm with the excitation light set at 460 nm provided by the xenon arc lamp described above. These measurements were made on the AB1 complexes at high protein concentration.

avidin (AV) = target: T2, avidin (AV) (Gallus gallus, UniProt P02701); assay: Quantum yields (QY), AV complex; assay type: physicochemical; settings: for Quantum Yield QY: AV complex (AB1); for dQY-AV: fractional change of QY, AV complex against dye
T2 construct: purchased Calbiochem (La Jolla, CA)
Protocol: as §1, §3

de-glycosylated AV = target: T3, de-glycosylated AV (Gallus gallus, UniProt P02701); assay: Stopped-flow association kinetics with endoglycosidase H de-glycosylated avidin; assay type: binding
T3 construct: purchased Calbiochem (La Jolla, CA)
Protocol: These reactions were carried out in a buffered solution of 10 mM Tris-HCl, 100 mM KCl, 2.5 mM MgCl2 and 1 mM CaCl2 at pH 8 and only AV-BcO reactions included pH 9 and 10. The concentrations, after mixing, were of 20 nM of dye-labeled B7 probe and 260 nM, 520 nM or 1040 nM of AV; and 200 nM, 300 nM, 400 nM or 800 nM of SAV at temperatures of 10, 15, 20 and 25°C. The deglycosylation of AV (for comparative association reactions) was carried out using the provided standard protocol with endoglycosidase H [47], both with and without incubation of a denaturant solution (2% SDS and 1M 2-mercaptoethanol).
The reactions were collected with the SF instrument, described previously. The fluorescence signal was collected through a 520 nm interference filter (Oriel Corp., Stratford, CT) with a detector time constant and SF dead time of 1 μs and 1 ms, respectively. The excitation light was provided by the Coherent Ar^+ ion laser (described above) at 488 nm with […] of incident power on the reaction cuvette. The laser source was followed by the photo-elastic modulator described above with the axis oriented 45^o with respect to the electric vector of the incident light and with the half-wave modulation (50 kHz) set for 488 nm excitation. The demodulation circuitry following the photomultiplier provided a DC(t) and a rectified AC(t) which were converted to digital data by a high-speed digitizer (PCI-5122) from National Instruments (Austin, TX) with 14-bit resolution and 100 MHz bandwidth, through channels 0 and 1. The data acquisition was controlled by LabVIEW (Vr 8) software at a collection rate of 6120 data points/second and stored in spreadsheets. The AC(t) and DC(t) data were baseline corrected before obtaining the signal ratio (Eq 4) as a function of time (ρt).

[5] = SAV complex, mono-ionic fluorescein species

T1 sequence (P22629 25-183): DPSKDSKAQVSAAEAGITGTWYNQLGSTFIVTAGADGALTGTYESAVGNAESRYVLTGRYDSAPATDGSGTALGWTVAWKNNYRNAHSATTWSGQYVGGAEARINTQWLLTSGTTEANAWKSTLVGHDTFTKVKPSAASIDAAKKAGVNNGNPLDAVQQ
T3 sequence (P02701 25-152): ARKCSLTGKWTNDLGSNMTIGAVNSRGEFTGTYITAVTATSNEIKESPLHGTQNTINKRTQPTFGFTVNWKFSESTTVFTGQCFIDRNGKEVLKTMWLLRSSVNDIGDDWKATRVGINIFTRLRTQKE
T2 sequence (P02701 25-152): as above

O=C(CCCC[C@@H]1SC[C@@H]2NC(=O)N[C@@H]21)NCCNC(=O)c1ccc(-c2c3ccc(=O)cc-3oc3cc(O)ccc23)c(C(=O)O)c1 [BFl, Biotin-4-fluorescein]
Steady State Anisotropy rss (streptavidin (SAV) [1]): 0.171 ± 0.008
SAV-increment (%) (streptavidin (SAV) [1]): 714.3%
rss, + SAV (streptavidin (SAV) [1]): 0.171
release (displacement) of the bound probe (streptavidin (SAV) [2]; SAV-BFl complex, AB1, 30°C, challenging B7 1400 nM): 5%
Natural Lifetime τ° (streptavidin (SAV) [3]; SAV complex, di-ionic fluorescein species): 4.5 ± 0.1
Fraction of Non-Statically Quenched Dye 1-S (streptavidin (SAV) [3]; [5]): 0.18 ± 0.02
Natural Lifetime τ° (streptavidin (SAV) [3]; [5]): 8.1 ± 0.1
1-S (4) = QY/F, fraction of non-statically quenched molecules (streptavidin (SAV) [3]): 0.14 and 0.14 ± 0.02
F (3) = Sat/t° (streptavidin (SAV) [3]): 0.80 ± 0.02
S (streptavidin (SAV) [3]): 0.86
t° (2), intrinsic lifetime of the fluorescence dye (streptavidin (SAV) [3]): 4.6 ± 0.1
488, correction, absR/abs (streptavidin (SAV) [4]; complex with SAV): 1.708
QY (streptavidin (SAV) [4]; complex with SAV): 0.11 and 0.11 ± 0.01
QY multiplied by the 488 correction absR/abs (streptavidin (SAV) [4]; complex with SAV): 0.1879
dQY-SAV (streptavidin (SAV) [4]): -0.7885
Quantum Yield QY (avidin (AV)): 0.44 ± 0.01
488, correction, absR/abs (avidin (AV); complex with AV): 1.171
QY (avidin (AV); complex with AV): 0.44 and 0.44 ± 0.01
QY multiplied by the 488 correction absR/abs (avidin (AV); complex with AV): 0.5154
dQY-AV (avidin (AV)): -0.1538
ln(k) (de-glycosylated AV; deAV 15C (288.15 K), pH8): 15.5
k(average) (de-glycosylated AV; deAV 15C (288.15 K), pH8, full value): 5.36E+06
k(average) (de-glycosylated AV; deAV 15C (288.15 K), pH8, scaled): 5.4

NC(CCCCNC(=O)CCCC[C@@H]1SC[C@@H]2NC(=O)N[C@@H]21)C(=O)NCCCCCNC(=O)c1ccc(-c2c3cc(F)c(=O)cc-3oc3cc(O)c(F)cc23)c(C(=O)O)c1 (some centres unmarked) [BcO, Oregon green 488 Biocytin]
Steady State Anisotropy rss (streptavidin (SAV) [1]): 0.053 ± 0.005
SAV-increment (%) (streptavidin (SAV) [1]): 130.4%
rss, + SAV (streptavidin (SAV) [1]): 0.053
half-time of displacement (streptavidin (SAV) [2]; 20°C, challenging B7 740 nM): 56.6 s
half-time of displacement (streptavidin (SAV) [2]; 20°C, challenging B7 1240 nM): 33.9 s
half-time of displacement (streptavidin (SAV) [2]; 20°C, challenging B7 1740 nM): 24.2 s
release amplitude of the displacement reaction (streptavidin (SAV) [2]; SAV-BcO complex challenged with unlabeled B7, 20°C): ~ 79% and 79 ± 1%
Dynamic Quantum Yield Φ (streptavidin (SAV) [3]; SAV complex (AB1)): 0.83 ± 0.02
Fraction of Non-Statically Quenched Dye 1-S (streptavidin (SAV) [3]; SAV complex (AB1)): 0.25 ± 0.02
Natural Lifetime τ° (streptavidin (SAV) [3]; SAV complex (AB1)): 4.8 ± 0.1
1-S (4) = QY/F, fraction of non-statically quenched molecules (streptavidin (SAV) [3]): 0.25 and 0.25 ± 0.02
F (3) = Sat/t° (streptavidin (SAV) [3]): 0.83 ± 0.02
S (streptavidin (SAV) [3]): 0.75
t° (2), intrinsic lifetime of the fluorescence dye (streptavidin (SAV) [3]): 4.8 ± 0.1
Quantum Yield QY (streptavidin (SAV) [4]; SAV complex (AB1)): 0.21 ± 0.01
QY (streptavidin (SAV) [4]; complex with SAV): 0.21 ± 0.01 and 0.21
dQY-SAV (streptavidin (SAV) [4]): -0.7692
Quantum Yield QY (avidin (AV)): 0.62 ± 0.02
QY (avidin (AV); complex with AV): 0.62 and 0.62 ± 0.02
dQY-AV (avidin (AV)): -0.3187
kon (de-glycosylated AV; de-glycosylated AV, 15°C): 3.7e+06 M⁻¹ s⁻¹

Source: PMC6394990, “Detailed characterization of the solution kinetics and thermodynamics of biotin, biocytin and HABA binding to avidin and streptavidin” (PLoS ONE, 2019)
